Values of other authors as cited in patent publication US20120046351A1, “Medicinal cannabis added in food” (priority 2010, published 2012).

How the values were obtained:
[1] = 180 degrees C.
people who use cannabis = details: compared with the no cannabinoid and the TCH+CBD groups

SMILES: CCCCCc1cc(O)c2c(c1)OC(C)(C)[C@@H]1CCC(C)=C[C@@H]21 [Δ^9-THC, Tetrahydrocannabinol]
- degradation of Δ^9-THC into cannabinol and dihydrocannabinol [1]: A significant percentage of Δ^9-THC being degraded
- positive schizophrenia-like symptoms (people who use cannabis): higher levels of positive schizophrenia-like symptoms
